The values below come from US7097825B2, “Methods and reagents to acquire MRI signals and images” (Allos Therapeutics, Inc., priority 2001, dated 2006).

In assay [1] the target is T1, hemoglobin (Mus musculus, UniProt P01942+P02088).
T1 construct: after a 300 mg/kg RSR13 injection into mice; host or cells: blood (erythrocytes) of mice injected with RSR13; endogenous hemoglobin
Particulars: 20–40 min after 300 mg/kg RSR13 injection into mice; cited from earlier work.

Assay [2] has as its system NCI-H460 human large cell lung carcinoma xenografts. Nature of the assay: Tumor growth delay, RSR13 and/or radiation. The format is in vivo, athymic nude mice. As to conditions: for Tumor growth delay: n=4. As to the method: (§1) NCI-H460 human large cell lung carcinoma cells were obtained from the American Type Culture Collection (ATCC). H460 cells were cultured at 37° C., 5% CO2 in RPMI 1640 medium (Gibco BRL, Gaithersburg, Md.)+10% fetal bovine serum (Gibco)+50 U/ml penicillin (Gibco)+50 μg/ml streptomycin (Gibco). Cells were routinely passaged using 0.05% trypsin-EDTA. Human NIH-H460 cells were used as a xenograft model in female athymic nude mice (nu/nu, 5–6 weeks old). Cells at 80% confluence were trypsinized, resuspended in growth medium, and counted. Cells were then centrifuged and resuspended in 37° C. PBS at 2×10^7 cells/ml. A suspension of 2×10^6 cells in a 0.1 ml volume was injected subcutaneously (s.c.) into the left posterior flank. Tumors were allowed to grow for 2 weeks (about 1 cm^3) before imaging, or for 7 days prior to treatment with RSR13 and radiation.
Tumors on the flanks of mice were irradiated using an Eldorado-8 ^60Co γ irradiator (Neutron Products, Inc., Dickerson, Md.). The dose rate was 1.18 Gy/min, at an SSD of 56.5 cm. The non-tumor parts of mice were shielded using lead blocks. Mice were irradiated using restraining devices constructed from 50 ml conical polyethylene tubes taped to a Styrofoam pad. Mice were irradiated 30 min after administration of RSR13 (given by intraperitoneal injection).
Tumors were measured three times weekly in two perpendicular dimensions using Vernier calipers. Volumes were calculated using the formula: volume=0.4* ab^2 (a=long dimension, b=short dimension). Treatment began when tumors reached an average volume of about 0.3 cm^3. Growth delay time (GD) was calculated as the time for treated tumors to double in volume minus the time for control tumors to double in volume, with t=0 defined as the first day of treatment. Treatment groups consisted of either untreated control, radiation alone, RSR13 alone, or RSR13 plus radiation. Each treatment group contained four mice.
A paired t-test was applied to test the differences between baseline and follow-up time points. […]

For assay [3] the test system is unchanged. Nature of the assay: BOLD MRI signal ratio in tumors after RSR13 injection. The format is in vivo, athymic nude mice. As to conditions: for Change in BOLD MRI signal: (Intensity (t = 30 min)/Intensity (t = 0)): 30 min after injection, preliminary. The method, then: as §1
Mice with tumors were anesthetized with 0.05 cc of a ketamine (100 mg/ml) and acepromezine (2.5 mg/0.25 ml) cocktail (induction anesthesia). A 24G angiocath, attached to a syringe with the appropriate amount of RSR13, was then placed and secured intraperitoneally (i.p.). Mice were placed in a pre-warmed anesthesia chamber and the surface coil was positioned over the tumor. The entire assembly was then placed into a Varian 4.7T small bore MR scanner. The anesthesia chamber was then infused with a mixture of 98.5% room air and 1.5% isoflurane (maintenance anesthesia) at a rate of 1.5 L/min throughout the experiment. After scout images were obtained to localize the tumor, serial gradient echo images were obtained at ten-minute intervals over a total of 60 minutes. RSR13 was supplied as a 20-mg/ml stock solution, which was diluted with sterile phosphate-buffered saline (PBS) prior to experiments to achieve the desired dose (mg/kg) per […]. At the start of acquisition of the second image (“time 0”), a dose of RSR13 was injected i.p. RSR13 doses were administered in 0.3 ml volumes; control mice were given injections of saline. Preliminary experiments were performed to optimize the BOLD contrast, first by imaging mouse tumors without any drug, and then by administering different doses of RSR13. A dose of 200 mg/kg was then chosen for further studies. Parameters for BOLD-MRI scans were chosen to maximize sensitivity to oxygen dependent changes in the relaxation parameter T2*. The following MRI parameters were used: TR=520 ms, TE=27 ms, flip angle=45°, 18 signal averages, 230 μm spatial resolution, matrix=128×128, bandwidth=37.4 kHz, field of view=3×3 cm. Color maps indicating percent increase in signal relative to the baseline gradient echo image were created for each image. Color maps were overlaid on corresponding spin echo images for anatomic reference. After images were acquired, each individual tumor (at t=30 min.) was examined slice by slice, and a single slice which was most representative of the entire tumor was chosen. Within each representative slice, a 15×15-pixel regions of interest (ROI) was drawn around the area of maximum signal intensity (about 25% of the tumor slice area). The voxel size was 0.23 mm×0.23 mm×1 mm; thus the slice thickness was 1 mm. The same slice and ROI were then used to calculate the signal ratio corresponding to the other times for the same tumor. The following signal ratio was calculated: Intensity (t)/Intensity (t=0 min). Based on the signal parameters listed above, the MRI signal intesnsity is proportional to the MR relaxation time, T*2, which is linearly related to the level of oxygen saturation. See, e.g. Ogawa, et al., Magn. Reson. Med. 29:205–10 (1993). Images were analyzed in a blind fashion in the dose dependence studies, without knowledge of the drug doses used, to eliminate observer bias.
A paired t-test was applied to test the differences between baseline and follow-up time points. All tests of significance were two-sided, and differences were considered statistically significant when the P value was≦0.05. […]

Assay [4] relates to tumors. As to conditions: previous studies, fractionated radiotherapy; cited from earlier work.

T1 sequence (P01942 2-142 limits assumed): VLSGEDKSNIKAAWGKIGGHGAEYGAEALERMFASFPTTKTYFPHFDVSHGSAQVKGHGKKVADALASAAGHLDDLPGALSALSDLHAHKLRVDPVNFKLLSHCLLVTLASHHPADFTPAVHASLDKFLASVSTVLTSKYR
T1 sequence (P02088 2-147 limits assumed): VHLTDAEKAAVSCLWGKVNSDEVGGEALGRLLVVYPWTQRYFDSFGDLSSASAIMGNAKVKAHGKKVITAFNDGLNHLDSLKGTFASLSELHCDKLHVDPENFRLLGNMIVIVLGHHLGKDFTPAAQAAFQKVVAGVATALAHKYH

Consider `Cc1cc(C)cc(NC(=O)Cc2ccc(OC(C)(C)C(=O)O)cc2)c1` [RSR13, 2-[4-(((3,5-dimethylanilino)carbonyl)methyl)phenoxy]-2-methylpropionic acid], for which, in assay [1], the “Mean increase of pO2 at 50% hemoglobin saturation” value is recorded as 53%. The “Enhancement factor (growth delay RSR13 plus radiation / radiation alone)” value in assay [2] (6.6/2.4, 200 mg/kg, 10 Gy 30 min later) turned out to be 2.8. Further, the Tumor growth delay is reported as 6.6 days in assay [2] (RSR13 200 mg/kg i.p. plus radiation 10 Gy given 30 min later, radiation alone 2.4 days) and “did not affect tumor growth delay” in assay [2] (RSR13 alone, 200 mg/kg i.p.). For the same compound, in assay [3] (200 mg/kg i.p., n=8, P=0.04), the “Increase of MRI signal ratio between t=10 and 30 min” value is recorded as 14%. The “Increase of MRI signal ratio between t=10 and 20 min” value in assay [3] (200 mg/kg i.p., n=8, P=0.05) is 9%. Also, in assay [3] (200 mg/kg i.p., n=8, P≧0.05), the “Changes of MRI signal ratio between t=10 and 40, 50, or 60 min” value is listed as “not statistically significant”. For the same compound, in assay [3] (200 mg/kg i.p., n=8 mice), the “Time of maximum MRI signal ratio after RSR13 injection” value stood at 30 min. For the same compound, the “Increase in signal in tumor tissue ROI, normalized to signal at time zero” value in assay [3] (FIG. 9, H460 tumor ROI 1, about two hours after time zero injection) is on record as roughly 20%. Besides, the “Change in BOLD MRI signal: (Intensity (t = 30 min)/Intensity (t = 0))” value came to 1.13 in assay [3] (RSR13 100 mg/kg i.p., 1 mouse (Mouse B)); 1.20 in assay [3] (RSR13 200 mg/kg i.p., 1 mouse (Mouse C)); 1.19 in assay [3] (RSR13 300 mg/kg i.p., 1 mouse (Mouse D)). The “Dose at which the signal ratio reached a plateau” value in assay [3] (doses 0, 100, 200, 300 mg/kg, t=30 min) was 200 mg/kg. Further, in assay [4], the “Enhancement ratios (dose modifying factors)” value is 1.3–1.8.
